This experiment addresses PARP7 (Homo sapiens (Human), UniProt Q7Z3E1). Nature of the experiment: Enzymatic assay for inhibition of PARP7: TR-FRET displacement of biotinylated Probe A from the TIPARP active site. The experiment is classed as binding. Conditions: Table A-1. The method, boiled down:
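Percent inhibition derives from the ratio of 665 to 615 nm emission, which reports how much Probe A remains bound to TIPARP. Plates sat 30 min at 25° C before the time-resolved read (320 nm excitation).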

Sequence of PARP7 (Q7Z3E1 whole entry): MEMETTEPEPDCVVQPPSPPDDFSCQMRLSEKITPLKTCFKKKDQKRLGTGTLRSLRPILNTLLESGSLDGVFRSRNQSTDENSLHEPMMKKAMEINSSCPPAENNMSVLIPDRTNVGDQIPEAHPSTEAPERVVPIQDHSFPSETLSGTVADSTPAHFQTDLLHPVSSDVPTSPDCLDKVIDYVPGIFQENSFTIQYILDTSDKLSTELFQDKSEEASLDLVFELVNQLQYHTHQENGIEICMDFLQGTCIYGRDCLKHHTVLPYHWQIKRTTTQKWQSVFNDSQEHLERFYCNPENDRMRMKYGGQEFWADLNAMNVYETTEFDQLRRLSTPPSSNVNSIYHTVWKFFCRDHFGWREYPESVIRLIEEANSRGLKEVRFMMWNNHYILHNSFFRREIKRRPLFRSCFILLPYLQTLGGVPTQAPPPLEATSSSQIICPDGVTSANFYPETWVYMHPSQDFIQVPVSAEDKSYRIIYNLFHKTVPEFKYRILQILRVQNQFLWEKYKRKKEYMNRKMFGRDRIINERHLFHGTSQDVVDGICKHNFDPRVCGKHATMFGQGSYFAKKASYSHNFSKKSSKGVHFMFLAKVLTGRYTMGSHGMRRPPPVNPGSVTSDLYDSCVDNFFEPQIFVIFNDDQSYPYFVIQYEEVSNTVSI

For the molecule `N#Cc1ccc(NCCC(=O)Nc2cccc(OCC3c4ccccc4CN3c3cn[nH]c(=O)c3C(F)(F)F)c2)nc1` (stereo not shown) [Example 394, 3-((5-Cyanopyridin-2-yl)amino)-N-(3-((2-(6-oxo-5-(trifluoromethyl)-1,6-dihydropyridazin-4-yl)isoindolin-1-yl)methoxy)phenyl)propanamide], the IC50 (usually the concentration that inhibits the measured activity by half) was < 100 nM. As for `N#Cc1cnc(N2CCN(C(=O)c3cncc(OC[C@@H]4c5ccccc5CN4c4cn[nH]c(=O)c4C(F)(F)F)c3)CC2)nc1` [Example 395, (S)-2-(4-(5-((2-(6-Oxo-5-(trifluoromethyl)-1,6-dihydropyridazin-4-yl)isoindolin-1-yl)methoxy)nicotinoyl)piperazin-1-yl)pyrimidine-5-carbonitrile], the figure is < 100 nM; as for `N#Cc1cnc(N2CCN(C(=O)c3cncc(OC[C@H]4c5ccccc5CN4c4cn[nH]c(=O)c4C(F)(F)F)c3)CC2)nc1` [Example 396, (R)-2-(4-(5-((2-(6-Oxo-5-(trifluoromethyl)-1,6-dihydropyridazin-4-yl)isoindolin-1-yl)methoxy)nicotinoyl)piperazin-1-yl)pyrimidine-5-carbonitrile], ≥ 1000 nM; as for `N#Cc1ccc(N2CCN(C(=O)c3cccc(OCC4c5ncccc5CN4c4cn[nH]c(=O)c4C(F)(F)F)c3)CC2)nc1` (stereo not shown) [Example 397, 6-(4-(3-((6-(6-Oxo-5-(trifluoromethyl)-1,6-dihydropyridazin-4-yl)-6,7-dihydro-5H-pyrrolo[3,4-b]pyridin-7-yl)methoxy)benzoyl)piperazin-1-yl)nicotinonitrile], < 100 nM. As to `O=C(c1cccc(OCC2c3ccccc3CN2c2cn[nH]c(=O)c2C(F)(F)F)c1)N1CCn2ncnc2C1` (stereo not shown) [Example 398, 5-(1-((3-(5,6,7,8-Tetrahydro-[1,2,4]triazolo[1,5-a]pyrazine-7-carbonyl)phenoxy)methyl)isoindolin-2-yl)-4-(trifluoromethyl)pyridazin-3(2H)-one], the IC50 is < 100 nM. As to `O=C(c1cccc(OCC2c3ccccc3CN2c2cn[nH]c(=O)c2C(F)(F)F)c1)N1CCn2nncc2C1` (stereo not shown) [Example 399, 5-(1-((3-(4,5,6,7-Tetrahydro-[1,2,3]triazolo[1,5-a]pyrazine-5-carbonyl)phenoxy)methyl)isoindolin-2-yl)-4-(trifluoromethyl)pyridazin-3(2H)-one], the IC50 lay within 100 to 1000 nM. For the molecule `N#Cc1ccc(N2CCN(C(=O)c3ccc(OCc4cccc5c4CN(c4cn[nH]c(=O)c4C(F)(F)F)C5)cc3)CC2)nc1` [Example 400], the half-maximal inhibitory concentration (IC50) is < 100 nM.

Consider `N#Cc1ccc(N2CCN(C(=O)c3cccc(OCCc4cccc5c4CN(c4cn[nH]c(=O)c4C(F)(F)F)C5)c3)CC2)nc1` [Example 401, 6-(4-(3-(2-(2-(6-Oxo-5-(trifluoromethyl)-1,6-dihydropyridazin-4-yl)isoindolin-4-yl)ethoxy)benzoyl)piperazin-1-yl)nicotinonitrile], for which the concentration for half-maximal inhibition (IC50) was < 100 nM. With `N#Cc1ccc(N2CCN(C(=O)c3ccc(OCCc4cccc5c4CN(c4cn[nH]c(=O)c4C(F)(F)F)C5)cc3)CC2)nc1` [Example 402, 6-(4-(4-(2-(2-(6-Oxo-5-(trifluoromethyl)-1,6-dihydropyridazin-4-yl)isoindolin-4-yl)ethoxy)benzoyl)piperazin-1-yl)nicotinonitrile], the 50% inhibitory concentration (IC50) was < 100 nM. As for `Cc1ccc(N2CCN(C(=O)c3cccc(OCC4c5ccccc5CN4c4cn[nH]c(=O)c4C(F)(F)F)c3)CC2)nc1` (stereo not shown) [Example 403, 5-(1-((3-(4-(5-Methylpyridin-2-yl)piperazine-1-carbonyl)phenoxy)methyl)isoindolin-2-yl)-4-(trifluoromethyl)pyridazin-3(2H)-one], the figure is < 100 nM; as for `O=C(c1cccc(OCC2c3ccccc3CN2c2cn[nH]c(=O)c2C(F)(F)F)c1)N1CCn2nccc2C1` (stereo not shown) [Example 404, 5-(1-((3-(4,5,6,7-Tetrahydropyrazolo[1,5-a]pyrazine-5-carbonyl)phenoxy)methyl)isoindolin-2-yl)-4-(trifluoromethyl)pyridazin-3(2H)-one], 100 to 1000 nM; as for `CC(=O)N1CCN(C(=O)c2cccc(OCC3c4ccccc4CN3c3cn[nH]c(=O)c3C(F)(F)F)c2)CC1` (stereo not shown) [Example 405, 5-(1-((3-(4-Acetylpiperazine-1-carbonyl)phenoxy)methyl)isoindolin-2-yl)-4-(trifluoromethyl)pyridazin-3(2H)-one], < 100 nM. Turning to `CC(=O)N1CCN(C(=O)c2cccc(OC[C@H]3c4ccccc4CN3c3cn[nH]c(=O)c3C(F)(F)F)c2)CC1` [Example 406, (R)-5-(1-((3-(4-Acetylpiperazine-1-carbonyl)phenoxy)methyl)isoindolin-2-yl)-4-(trifluoromethyl)pyridazin-3(2H)-one], the concentration for half-maximal inhibition (IC50) is ≥ 1000 nM. Take `CC(=O)N1CCN(C(=O)c2cccc(OC[C@@H]3c4ccccc4CN3c3cn[nH]c(=O)c3C(F)(F)F)c2)CC1` [Example 407, (S)-5-(1-((3-(4-Acetylpiperazine-1-carbonyl)phenoxy)methyl)isoindolin-2-yl)-4-(trifluoromethyl)pyridazin-3(2H)-one]: the 50% inhibitory concentration (IC50) was < 100 nM. Turning to `N#Cc1ccc(N2CCN(C(=O)CCCOCC3c4ccccc4CN3c3cn[nH]c(=O)c3C(F)(F)F)CC2)nc1` (stereo not shown) [Example 408, 6-(4-(4-((2-(6-Oxo-5-(trifluoromethyl)-1,6-dihydropyridazin-4-yl)isoindolin-1-yl)methoxy)butanoyl)piperazin-1-yl)nicotinonitrile], the IC50 is < 100 nM.

`N#Cc1ccc(N2CCN(C(=O)CCCOC[C@H]3c4ccccc4CN3c3cn[nH]c(=O)c3C(F)(F)F)CC2)nc1` [Example 409, (R)-6-(4-(4-((2-(6-Oxo-5-(trifluoromethyl)-1,6-dihydropyridazin-4-yl)isoindolin-1-yl)methoxy)butanoyl)piperazin-1-yl)nicotinonitrile] returned an IC50 of 100 to 1000 nM.

As to `N#Cc1ccc(N2CCN(C(=O)CCCOC[C@@H]3c4ccccc4CN3c3cn[nH]c(=O)c3C(F)(F)F)CC2)nc1` [Example 410, (S)-6-(4-(4-((2-(6-Oxo-5-(trifluoromethyl)-1,6-dihydropyridazin-4-yl)isoindolin-1-yl)methoxy)butanoyl)piperazin-1-yl)nicotinonitrile], the IC50 is < 100 nM. For the molecule `N#Cc1ccc(N2CCN(C(=O)CCCOCC3c4ncccc4CN3c3cn[nH]c(=O)c3C(F)(F)F)CC2)nc1` (stereo not shown) [Example 411, 6-(4-(4-((6-(6-Oxo-5-(trifluoromethyl)-1,6-dihydropyridazin-4-yl)-6,7-dihydro-5H-pyrrolo[3,4-b]pyridin-7-yl)methoxy)butanoyl)piperazin-1-yl)nicotinonitrile], the 50% inhibitory concentration (IC50) is < 100 nM. For the molecule `N#Cc1ccc(N2CCN(C(=O)CCOCC3c4ncccc4CN3c3cn[nH]c(=O)c3C(F)(F)F)CC2)nc1` (stereo not shown) [Example 412, 6-(4-(3-((6-(6-Oxo-5-(trifluoromethyl)-1,6-dihydropyridazin-4-yl)-6,7-dihydro-5H-pyrrolo[3,4-b]pyridin-7-yl)methoxy)propanoyl)piperazin-1-yl)nicotinonitrile], the IC50 is < 100 nM.

With `N#Cc1ccc(N2CCN(C(=O)CCOC[C@@H]3c4ccccc4CN3c3cn[nH]c(=O)c3Cl)CC2)nc1` [Example 413, (S)-6-(4-(3-((2-(5-Chloro-6-oxo-1,6-dihydropyridazin-4-yl)isoindolin-1-yl)methoxy)propanoyl)piperazin-1-yl)nicotinonitrile], the IC50 was < 100 nM. As for `N#Cc1ccc(N2CCN(C(=O)CCOC[C@H]3c4ccccc4CN3c3cn[nH]c(=O)c3Cl)CC2)nc1` [Example 414, (R)-6-(4-(3-((2-(5-Chloro-6-oxo-1,6-dihydropyridazin-4-yl)isoindolin-1-yl)methoxy)propanoyl)piperazin-1-yl)nicotinonitrile], the half-maximal inhibitory concentration (IC50) is 100 to 1000 nM. As for `O=C(CCOC[C@@H]1c2ccccc2CN1c1cn[nH]c(=O)c1Cl)N1CCN(c2ncc(C(F)(F)F)cn2)CC1` [Example 415, (S)-4-Chloro-5-(1-((3-oxo-3-(4-(5-(trifluoromethyl)pyrimidin-2-yl)piperazin-1-yl)propoxy)methyl)isoindolin-2-yl)pyridazin-3(2H)-one], the figure is < 100 nM. Consider `O=C(CCOC[C@H]1c2ccccc2CN1c1cn[nH]c(=O)c1Cl)N1CCN(c2ncc(C(F)(F)F)cn2)CC1` [Example 416, (R)-4-Chloro-5-(1-((3-oxo-3-(4-(5-(trifluoromethyl)pyrimidin-2-yl)piperazin-1-yl)propoxy)methyl)isoindolin-2-yl)pyridazin-3(2H)-one], for which the IC50 was 100 to 1000 nM. Turning to `O=C(CCOC[C@@H]1c2ccccc2CN1c1cn[nH]c(=O)c1C(F)(F)F)N1CCNCC1` [Example 417, (S)-5-(1-((3-Oxo-3-(piperazin-1-yl)propoxy)methyl)isoindolin-2-yl)-4-(trifluoromethyl)pyridazin-3(2H)-one], the IC50 lay in the range of 100 to 1000 nM. For `O=C(CCOC[C@H]1c2ccccc2CN1c1cn[nH]c(=O)c1C(F)(F)F)N1CCNCC1` [Example 418, (R)-5-(1-((3-Oxo-3-(piperazin-1-yl)propoxy)methyl)isoindolin-2-yl)-4-(trifluoromethyl)pyridazin-3(2H)-one 0.4 formic acid] the value was ≥ 1000 nM; for `CC(=O)N1CCN(C(=O)CCOC[C@@H]2c3ccccc3CN2c2cn[nH]c(=O)c2C(F)(F)F)CC1` [Example 419, (S)-5-(1-((3-(4-Acetylpiperazin-1-yl)-3-oxopropoxy)methyl)isoindolin-2-yl)-4-(trifluoromethyl)pyridazin-3(2H)-one], < 100 nM.

On to `CC(=O)N1CCN(C(=O)CCOC[C@H]2c3ccccc3CN2c2cn[nH]c(=O)c2C(F)(F)F)CC1` [Example 420, (R)-5-(1-((3-(4-Acetylpiperazin-1-yl)-3-oxopropoxy)methyl)isoindolin-2-yl)-4-(trifluoromethyl)pyridazin-3(2H)-one], for which the IC50 was ≥ 1000 nM.

As for `CN1CCN(C(=O)CCOC[C@@H]2c3ccccc3CN2c2cn[nH]c(=O)c2C(F)(F)F)CC1` [Example 421, (S)-5-(1-((3-(4-Methylpiperazin-1-yl)-3-oxopropoxy)methyl)isoindolin-2-yl)-4-(trifluoromethyl)pyridazin-3(2H)-one], the IC50 lay within 100 to 1000 nM.
